Data on two molecules can be found in patent US5021549A, “Physiologically active substances, probestin and prostatin and production thereof” (priority 1987, dated 1991).

pIC50: −log10 of the molar value.

For one series, the target named is Leucine-aminopeptidase (Homo sapiens, UniProt P28838). Put plainly: Inhibition of leucine-aminopeptidase.
Another series concerns mice. Briefly: Acute toxicity by intravenous injection in mice. In kind it is in vivo.
For series [1], the system named is antibody-forming cells in spleen. Put plainly: Humoral antibody formation: plaque-forming cells in spleen of SRBC-immunized mice (Jerne's hemolytic plaque technique). The series is classed as in vivo, CDF-mice. The note with it: for Number of PFC: counted 4 days after SRBC immunization; for T/C (%): PFC number versus control. The procedure:
CDF-mice were immunized by intravenous injection of 10^8 sheep red blood cells (SRBC). 1000 μg/mouse, 250 μg/mouse or 62.5 μg/mouse of probestin was administered by intraperitoneal injection into the mice at the time of the immunization with SRBC (0 hour) and then totally three times, namely 24, 48 and 72 hours after the immunization. Four days after the immunization with SRBC, the number of the plaque-forming cell (PFC) (namely, the antibody-forming cells) in spleen was enumerated by the known Jerne's hemolytic plaque technique [Jerne, N.K; A. A. Nordin & C. Henry; "The agar plaque technique for recognizing antibody-producing cells in cell-bound antibodies" pp. 109-122 published by Wister Institute press, Philadelphia (1963)].

For another series, the target named is Aminopeptidase-A (Homo sapiens, UniProt Q07075). Briefly: Inhibition of aminopeptidase-A.
Aminopeptidase-A, sequence (Q07075 whole entry): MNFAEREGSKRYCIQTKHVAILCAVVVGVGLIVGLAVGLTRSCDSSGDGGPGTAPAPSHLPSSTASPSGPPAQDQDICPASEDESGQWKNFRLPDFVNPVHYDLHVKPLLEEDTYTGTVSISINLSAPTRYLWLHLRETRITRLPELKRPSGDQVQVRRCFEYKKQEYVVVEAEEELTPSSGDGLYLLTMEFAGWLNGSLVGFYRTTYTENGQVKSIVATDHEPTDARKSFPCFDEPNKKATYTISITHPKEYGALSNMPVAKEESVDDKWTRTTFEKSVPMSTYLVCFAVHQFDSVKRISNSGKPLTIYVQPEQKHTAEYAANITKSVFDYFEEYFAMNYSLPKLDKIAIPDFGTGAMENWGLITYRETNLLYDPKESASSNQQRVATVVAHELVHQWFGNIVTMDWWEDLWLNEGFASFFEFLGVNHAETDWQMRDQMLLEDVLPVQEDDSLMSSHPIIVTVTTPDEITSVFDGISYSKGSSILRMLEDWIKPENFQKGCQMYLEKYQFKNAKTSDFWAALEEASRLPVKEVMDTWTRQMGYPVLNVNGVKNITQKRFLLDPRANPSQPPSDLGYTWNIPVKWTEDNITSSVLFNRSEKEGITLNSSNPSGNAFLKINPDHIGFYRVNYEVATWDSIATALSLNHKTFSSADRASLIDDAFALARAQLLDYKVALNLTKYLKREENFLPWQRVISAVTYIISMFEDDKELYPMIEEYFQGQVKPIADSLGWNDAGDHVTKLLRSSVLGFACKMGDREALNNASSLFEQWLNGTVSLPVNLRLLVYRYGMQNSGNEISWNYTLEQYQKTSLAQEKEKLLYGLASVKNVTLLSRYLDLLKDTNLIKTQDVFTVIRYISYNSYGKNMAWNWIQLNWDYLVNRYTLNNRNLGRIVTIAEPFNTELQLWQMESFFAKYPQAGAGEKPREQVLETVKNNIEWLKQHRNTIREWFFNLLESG
Another series is described as follows: Solubility in solvents. In kind it is physicochemical. The note with it: water and organic solvents.
In the next series the target is Aminopeptidase-B (Homo sapiens, UniProt Q9H4A4). Put plainly: Inhibition of aminopeptidase-B.
Aminopeptidase-B, sequence (Q9H4A4 whole entry): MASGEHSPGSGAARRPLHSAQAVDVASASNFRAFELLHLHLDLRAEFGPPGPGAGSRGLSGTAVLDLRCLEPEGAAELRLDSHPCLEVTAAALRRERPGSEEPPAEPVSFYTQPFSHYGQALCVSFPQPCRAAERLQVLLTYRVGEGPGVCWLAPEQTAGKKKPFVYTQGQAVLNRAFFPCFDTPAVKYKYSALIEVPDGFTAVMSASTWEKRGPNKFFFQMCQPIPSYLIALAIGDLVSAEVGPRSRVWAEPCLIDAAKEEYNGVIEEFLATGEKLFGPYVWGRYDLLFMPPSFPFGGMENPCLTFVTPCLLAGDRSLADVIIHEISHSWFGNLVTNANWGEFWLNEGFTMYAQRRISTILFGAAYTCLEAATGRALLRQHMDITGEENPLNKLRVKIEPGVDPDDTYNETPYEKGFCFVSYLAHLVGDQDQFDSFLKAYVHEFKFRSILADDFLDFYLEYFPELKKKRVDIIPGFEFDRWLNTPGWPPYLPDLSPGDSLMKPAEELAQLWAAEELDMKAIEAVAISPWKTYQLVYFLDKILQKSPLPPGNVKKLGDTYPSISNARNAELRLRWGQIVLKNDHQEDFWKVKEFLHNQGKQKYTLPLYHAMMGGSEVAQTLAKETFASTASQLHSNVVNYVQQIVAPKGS
Another series concerns the target T1, aminopeptidase M (Sus scrofa, UniProt P15145).
T1 construct: purchased Boehringer Mannheim Company
T1 sequence (P15145 1-963): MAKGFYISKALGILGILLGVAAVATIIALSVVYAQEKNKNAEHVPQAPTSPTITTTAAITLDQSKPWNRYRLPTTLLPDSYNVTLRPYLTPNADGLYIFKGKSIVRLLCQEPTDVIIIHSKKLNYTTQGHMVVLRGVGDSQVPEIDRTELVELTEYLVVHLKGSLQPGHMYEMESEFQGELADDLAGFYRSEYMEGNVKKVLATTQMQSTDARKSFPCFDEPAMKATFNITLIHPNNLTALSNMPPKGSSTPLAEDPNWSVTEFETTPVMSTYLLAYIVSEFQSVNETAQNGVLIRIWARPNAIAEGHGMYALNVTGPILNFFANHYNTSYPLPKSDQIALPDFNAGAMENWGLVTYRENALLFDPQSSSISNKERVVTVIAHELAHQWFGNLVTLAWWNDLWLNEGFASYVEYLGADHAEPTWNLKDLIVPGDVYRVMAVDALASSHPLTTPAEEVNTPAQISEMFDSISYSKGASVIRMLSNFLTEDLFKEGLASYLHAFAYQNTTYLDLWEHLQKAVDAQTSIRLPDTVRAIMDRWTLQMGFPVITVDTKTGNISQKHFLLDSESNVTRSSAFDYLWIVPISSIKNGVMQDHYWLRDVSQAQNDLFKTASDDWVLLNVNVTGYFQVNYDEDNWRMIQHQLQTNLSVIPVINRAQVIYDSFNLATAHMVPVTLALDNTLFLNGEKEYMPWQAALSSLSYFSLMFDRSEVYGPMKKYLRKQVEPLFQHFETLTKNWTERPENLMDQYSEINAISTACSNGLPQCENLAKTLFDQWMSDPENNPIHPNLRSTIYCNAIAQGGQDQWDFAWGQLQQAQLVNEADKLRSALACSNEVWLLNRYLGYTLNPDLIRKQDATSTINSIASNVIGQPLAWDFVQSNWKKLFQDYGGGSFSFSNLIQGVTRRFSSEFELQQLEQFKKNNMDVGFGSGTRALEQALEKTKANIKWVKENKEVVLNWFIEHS
Briefly: Inhibition of aminopeptidase M (L-leucine-β-naphthylamide substrate). In kind it is biochemical. The note with it: read-out: Value of IC50 against Aminopeptidase M (converted).

By pIC50 is commonly meant −log10 of the IC50, conventionally taken in molar units. Read a low pIC50 as a high IC50. The term IC50 denotes the concentration needed to halve the response being measured.

Leucine-aminopeptidase, sequence (P28838 whole entry): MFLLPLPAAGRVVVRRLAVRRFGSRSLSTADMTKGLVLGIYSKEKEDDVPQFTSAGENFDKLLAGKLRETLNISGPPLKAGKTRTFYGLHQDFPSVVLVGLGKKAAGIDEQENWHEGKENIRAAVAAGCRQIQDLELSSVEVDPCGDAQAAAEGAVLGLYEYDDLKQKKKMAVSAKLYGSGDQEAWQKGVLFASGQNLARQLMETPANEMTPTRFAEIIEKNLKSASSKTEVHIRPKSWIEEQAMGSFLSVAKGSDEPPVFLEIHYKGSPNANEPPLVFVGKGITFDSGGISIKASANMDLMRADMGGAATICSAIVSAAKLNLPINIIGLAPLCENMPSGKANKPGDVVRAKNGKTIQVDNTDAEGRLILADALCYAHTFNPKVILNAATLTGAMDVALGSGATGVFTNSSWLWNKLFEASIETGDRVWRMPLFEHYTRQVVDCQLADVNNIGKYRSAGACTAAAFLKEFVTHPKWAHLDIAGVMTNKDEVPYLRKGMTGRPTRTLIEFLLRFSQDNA
Procedure for aminopeptidase M: The mixture solution obtained is heated at 37° C. for 3 minutes. To the heated solution is added 0.05 ml of an aqueous solution of aminopeptidase M (a product of Boehringer Mannheim Company; 4 units/mg). The resulting mixture is incubated for 30 minutes at 37° C. for the enzymatic reaction and the resultant reaction mixture is admixed with 1 ml of 1.0 M acetate buffered solution (pH 4.2) containing 10% of a surfectant "Tween" 20 and 0.1% of Fast Garnet GBC (0-aminoazotoluene, diazonium salt) to stop the enzymatic reaction. After allowing the resulting mixture to stand at ambient temperature for 15 minutes, the absorbance of light at 525 nm of the resultant reaction solution is measured, with designating the measured value as value (a). […] The rate (%) of inhibition to the aminopeptidase M is calculated from an equation [(b-a)/b]×100.

Consider `CC(C)C[C@H](NC(=O)[C@@H](O)[C@H](N)Cc1ccccc1)C(=O)N1CCC[C@H]1C(=O)N1CCC[C@H]1C(=O)O` [Probestin], for which the “Value of IC50 against Leucine-aminopeptidase” value at Leucine-aminopeptidase stood at 0.091 µg/mL. The LD50 result in the series with mice is “greater than 250 mg/kg”. Also, the “Number of PFC” value in series [1] (62.5 μg/mouse ip. at 0, 24, 48, 72 h) is on record as 492.540 ± 69.980 × 10^3 /spleen; in series [1] (250 μg/mouse ip. at 0, 24, 48, 72 h) it was 631.680 ± 69.560 × 10^3 /spleen; in series [1] (1000 μg/mouse ip. at 0, 24, 48, 72 h), 891.900 ± 162.610 × 10^3 /spleen. In addition, the “T/C (%)” value amounted to 212.1% in series [1] (62.5 μg/mouse ip.), 271.8% in series [1] (250 μg/mouse ip.) and 384.1% in series [1] (1000 μg/mouse ip.). Further, the “Effect on number of antibody-forming cells in spleen (in words)” value in series [1] (intraperitoneal injection, SRBC-immunized mice, probestin 1000 μg to 62.5 μg/mouse) is reported as “increased number of the antibody-forming cells in the spleen”. On Aminopeptidase-A, the “Value of IC50 against Aminopeptidase-A” value is > 100 µg/mL. For the same molecule, the Solubility entry in “Solubility in solvents” was “Readily soluble in water, methanol and dimethyl-sulfoxide, but insoluble in acetone, ethyl acetate, chloroform and hexane”. Also, the “Value of IC50 against Aminopeptidase-B” value at Aminopeptidase-B was found to be 36.7 µg/mL.

On to `CCCCC[C@H](CC(=O)NO)C(=O)N[C@H](C(=O)N1CCC[C@H]1CO)C(C)C` [Actinonin, actinonin, reference compound], for which the pIC50 was 5.59 against Leucine-aminopeptidase and < 3.59 on Aminopeptidase-A. Moreover, the IC50 on aminopeptidase M is 1040 nM.
